Experimental data from US12029682B2, “Spray ejector mechanisms and devices providing charge isolation and controllable droplet charge, and low dosage volume ophthalmic administration” (EYENOVIA, INC., priority 2012, dated 2024).
Entries after “also recorded” stand apart in the source; their conditions may differ.

Key:
Type in all cases: in vivo, beagle dog
[1] = test system: glaucomatous beagles; assay: Pupil diameter (PD), Jameson Caliper, in glaucomatous beagles
[2] = test system: glaucomatous beagles; assay: Intraocular pressure (IOP), TonoVet, in glaucomatous beagles; settings: for IOP decrease: 6.0 μl at 0.025% via spray ejector device and 0.005% eyedropper had similar results
[3] = test system: glaucomatous beagles; assay: as above
Procedure: (§1) One glaucomatous beagle dog (female, aged 3 years) from the University of Florida MacKay Colony of Glaucomatous Beagles was chosen for this study. The animal was rested a minimum of one week before starting the study. Prior to the commencement of the study, the animal was assigned one eye to receive 1.5 μl of 0.005% latanoprost and the contralateral eye to remain untreated as a control. The basic measurement protocol was followed at all times and performed by the same operator. PD was measured via Jameson Caliper (mm horizontally). IOP was measured using a TonoVet instrument with clean probe (iCare). IOP and PD were measured at time 0, 1, 2, 4, 7 and 18 hours daily for two days. Immediately after the time 0 measurement, the animal received 1.5 μl of 0.005% latanoprost in its assigned eye with a spray device. The contralateral eye was left untreated. The spray device was checked for accuracy before and after every use, and required a 10% delivered dose accuracy in pretreatment. Standard measurements continued throughout each day at time 1, 2, 4, 7 and 18 hours. Possible endpoints included, but were not limited to, excessive ocular irritation, ocular damage, and other illness or injury. No statistical crossover was utilized for this study.
as §1, with “study.” for “study. The animal was rested a minimum of one week before starting the study.”, “receive 3.0” for “receive 1.5”, “0 measurements,” for “0 measurement,”, “animal was administered 3.0” for “animal received 1.5”, “eye using” for “eye with”, “spray ejector” for “spray”
All animals were rested for a minimum of one week before starting the trials. IOP and pupil diameter (PD) were measured 5 times (at 0, 1, 2, 4, and 7 hours) daily for four days (study days 1-4) to establish initial baseline levels. The basic measurement protocol was followed at all times and performed by the same operator. PD was measured via Jameson Caliper (mm horizontally). IOP was measured with a TonoVet instrument with clean probe (iCare). After three rest days, one eye was randomly assigned to receive 9 μl of 0.005% latanoprost delivered via a spray ejector device, and the contralateral eye was administered traditional latanoprost from a traditional eyedropper container (26-30 μl).
On study days 5-9, IOP and PD measurements were taken at approximately 0900 h (time 0). Immediately after time 0 measurements, each animal received a once-daily dose of 9 μl of generic 0.005% latanoprost in its assigned eye via the spray ejector device. The contralateral eye received a clinical dose (one drop) of the same commercially available topical drug from a traditional eyedropper (positive control). The spray ejector device was checked for accuracy before and after every use and required a 10% delivered dose accuracy in pretreatment. Standard measurements continued throughout each day at 0, 1, 2, 4, and 7 hours. Possible endpoints included, but were not limited to, excessive ocular irritation, ocular damage, and other illness or injury. No statistical crossover was utilized for this study. […]

[4] = test system: glaucomatous beagles; assay: Ocular irritation observations in glaucomatous beagles
Procedure: Active drug delivery begins on study day eight. For five days, IOP and PD measurements are taken at 0900. Immediately after 0900 measurements (time 0), each animal receives 6 μl of generic latanoprost in its assigned eye with the ejector device, followed by a second dosing 3 minutes later of an additional 6 μl (to avoid overloading the conjunctival sac). The contralateral eye receives a clinical dose (one drop) of the same commercially-available topical drug from FDA approved container (positive control). The ejector device is checked for accuracy before and after every use (Table 1). Standard measurements continue throughout each day (at 0:30, 0:45, 1, 2, 7 hrs). Possible endpoints include, but are not limited to, excessive ocular irritation, ocular damage, or other illness and injury. […]
On study days 5-9, IOP and PD measurements were taken at approximately 0900 h (time 0). Immediately after these measurements, each animal received 6 μl of 0.03% bimatoprost in its assigned eye via the spray ejector device. The contralateral eye received a clinical dose (one drop) of the same commercially available topical drug from a traditional eyedropper (positive control). The spray ejector device was checked for accuracy before and after every use and required a 10% delivered dose accuracy in pretreatment. Standard measurements continued throughout each day at 0, 1, 2, 4, and 7 hours. Possible endpoints included, but were not limited to, excessive ocular irritation, ocular damage, and other illness or injury. No statistical crossover was utilized for this study.
Ophthalmic examinations (slit lamp with fluorescein and indirect ophthalmoscopy) were performed on the eyes of each animal prior to Study Day 1. Ocular findings were scored according to the McDonald-Shadduck Score System. Ocular findings were recorded using a standardized data collection sheet. Macroscopic observations were recorded in accordance with the Draize Scale for Scoring Ocular Lesions. Animals were assigned treatments based on basic randomization prior to study day one.
Following a 7 day rest period, the eye choice was reversed. Measurements of IOP, heart rate and pupil diameter (PD) were made at 0:15, 0:30, 0:45, 1, 2, 4, 7, and 18 hours in the primary and crossover study. A veterinary ophthalmologist evaluated each test subject before and after the study for evidence of ocular side effects.
Ophthalmic examinations (slit lamp with fluorescein and indirect ophthalmoscopy) were performed on the eyes of each animal prior to study day 1. Ocular findings were scored according to the McDonald-Shadduck score system and macroscopic observations were recorded in accordance with the Draize scale for scoring ocular lesions. Ocular findings were recorded using a standardized data collection sheet.

[5] = 12 μl of 0.005% BID via spray ejector device
[6] = 1.5 μl of 0.005% once daily, spray ejector device, one dog, by hour 2
[7] = 3.0 μl of 0.005% once daily, spray ejector device, one dog, by hour 2

## CC(C)OC(=O)CCC/C=C\C[C@@H]1[C@@H](CC[C@@H](O)CCc2ccccc2)[C@H](O)C[C@@H]1O [latanoprost]
[1]; [5]
  duration of PD constriction vs eyedropper: remained constricted much longer
[1]; any point in the study (p=0.943)
  PD: spray ejector device 6.0 μl at 0.025% vs 0.005% eyedropper: no significant differences
[1]; both treatments (spray ejector device BID, eyedropper), by time 1 hour on most days
  minimum PD: pinpoint
[1]; by time 1 hour each day, 6.0 μl at 0.025% spray ejector device and 0.005% eyedropper
  PD: 0 mm
[2]; 0.005%, one drop (26-30 μl) by eyedropper
  duration of action vs spray ejector device: greater
[2]; [6]
  maximum decrease in IOP from the initial value: 16 mmHg
[2]; [7]
  IOP in the treated eye: 19 mmHg
[2]; 3.0 μl of 0.005% via spray ejector device
  effectiveness at lowering IOP and constricting the pupil vs traditional eyedropper therapy: as effective at lowering IOP and constricting the pupil as traditional eyedropper therapy
[2]; 9 μl of 0.005% once daily via spray ejector device
  IOP values vs baseline: significantly lower than baseline
[2]; [5]
  average daily change / average fluctuation in IOP (maximum minus minimum): 7.6 mmHg
  average fluctuation in IOP: 30%
  morning IOP spike compared to eyedropper delivery: consistently prevented the anticipated morning IOP spike
[2]; 12 μl of 0.005% BID via spray ejector device, day 8
  maximum IOP: 17.2±3.0 mmHg
[2]; 12 μl of 0.005% BID via spray ejector device, day 8, hour 7
  minimum IOP: 13.6±1.2 mmHg
[2]; 12 μl of 0.005% BID via spray ejector device, day 9
  maximum IOP: 26.2±6.3 mmHg
[2]; 12 μl of 0.005% BID via spray ejector device, day 9, hour 4
  minimum IOP: 16.2±1.5 mmHg
[2]; 12 μl of 0.005% BID via spray ejector device, day 10
  maximum IOP: 27.5±3.5 mmHg
[2]; 12 μl of 0.005% BID via spray ejector device, day 10, hour 4
  minimum IOP: 14.0±1.3 mmHg
[2]; 12 μl of 0.005% BID via spray ejector device, day 11
  maximum IOP: 26.5±2.8 mmHg
[2]; 12 μl of 0.005% BID via spray ejector device, day 11, hour 7
  minimum IOP: 14.7±0.9 mmHg
[2]; 30 μl of 0.005% once daily via spray ejector device, 2 dogs
  effectiveness at lowering/controlling IOP vs traditional eyedropper therapy: as effective at lowering IOP and constricting the pupil as the traditional eyedropper therapy; also recorded: as effective in controlling IOP as traditional eyedropper therapy
[2]; 30 μl of 0.005% via spray ejector device, pilot study
  duration of action vs eyedropper: trend toward increased duration of action
[2]; any point in the study (p=0.823)
  IOP: spray ejector device 6.0 μl at 0.025% vs 0.005% eyedropper: no significant differences; also recorded: statistically equivalent
[2]; first day of the study
  IOP decrease: approximately 45.4 mmHg
[2]; one drop of 0.005% by eyedropper, over the 5 days of the study
  maximum decrease in IOP: 27.5 mmHg
[2]; subsequent days
  IOP decrease: ~24.7 mmHg
[3]; [6]
  IOP in the treated eye: 11 mmHg
[3]; 1.5 μl of 0.005% via Whisper MDD
  effectiveness at lowering IOP and constricting the pupil vs traditional therapy: as effective at lowering IOP and constricting the pupil as traditional therapy
[3]; 3.0 μl of 0.005% once daily, spray ejector device, one dog
  time of maximum decrease in IOP: hour 7 on day 2
[3]; [7]
  decrease in IOP from the initial value: 12 mmHg
[3]; 9 μl of 0.005% once daily via spray ejector device vs one drop (26-30 μl), 5 days, 7-hour period
  effectiveness at lowering/controlling IOP vs traditional eyedropper therapy: as effective at lowering IOP and constricting the pupil as traditional therapy; also recorded: as effective at controlling IOP as traditional eyedropper therapy
[3]; 12 μl of 0.005% BID via spray ejector device, study day 7 (first day of instillation)
  maximum decrease in IOP: 28 mmHg
[3]; 12 μl of 0.005% BID via spray ejector device, study day 7, hour 7
  IOP level: 15.5±2.2 mmHg
[3]; one drop of 0.005% by eyedropper
  average daily change in IOP (maximum minus minimum): 14.6 mmHg
[3]; two 6 μl doses of 0.005% via ejector device vs one drop by eyedropper
  IOP: ejector device treatment vs traditional treatment: no significant differences; also recorded: statistically indistinguishable
[4]; 0.005%, either treatment (spray ejector device BID, eyedropper)
  ocular irritation, injury, or discomfort: no significant reports of ocular irritation, injury, or discomfort
[4]; 0.005%, ejector device 12 μl and eyedropper
  excessive eye irritation or other eye issues: no reports of excessive eye irritation or other eye issues
[4]; 6.0 μl at 0.025% spray ejector device and 0.005% eyedropper
  irritation: Normal irritation caused by prostaglandin analogues was present
[4]; 9 μl of 0.005% via spray ejector device
  irritation vs eyedropper-treated eyes: less than that observed in the eyedropper-treated eyes
[4]; [5]
  irritation to the eye with the lower dosage: less irritation to the eye
[4]; five times (5×) concentration (0.025%) via spray ejector device
  irritation vs eyedropper administration: no more irritation than that occurring following eyedropper administration
[4]; traditional treatment eyes (eyedropper), related to prostaglandin use
  conjunctival irritation: Some conjunctival irritation was noted
